# Biological target: T1, POLγA:G848S (Homo sapiens, UniProt P54098, G848S)
# T1 sequence (P54098 1-1239 G848S): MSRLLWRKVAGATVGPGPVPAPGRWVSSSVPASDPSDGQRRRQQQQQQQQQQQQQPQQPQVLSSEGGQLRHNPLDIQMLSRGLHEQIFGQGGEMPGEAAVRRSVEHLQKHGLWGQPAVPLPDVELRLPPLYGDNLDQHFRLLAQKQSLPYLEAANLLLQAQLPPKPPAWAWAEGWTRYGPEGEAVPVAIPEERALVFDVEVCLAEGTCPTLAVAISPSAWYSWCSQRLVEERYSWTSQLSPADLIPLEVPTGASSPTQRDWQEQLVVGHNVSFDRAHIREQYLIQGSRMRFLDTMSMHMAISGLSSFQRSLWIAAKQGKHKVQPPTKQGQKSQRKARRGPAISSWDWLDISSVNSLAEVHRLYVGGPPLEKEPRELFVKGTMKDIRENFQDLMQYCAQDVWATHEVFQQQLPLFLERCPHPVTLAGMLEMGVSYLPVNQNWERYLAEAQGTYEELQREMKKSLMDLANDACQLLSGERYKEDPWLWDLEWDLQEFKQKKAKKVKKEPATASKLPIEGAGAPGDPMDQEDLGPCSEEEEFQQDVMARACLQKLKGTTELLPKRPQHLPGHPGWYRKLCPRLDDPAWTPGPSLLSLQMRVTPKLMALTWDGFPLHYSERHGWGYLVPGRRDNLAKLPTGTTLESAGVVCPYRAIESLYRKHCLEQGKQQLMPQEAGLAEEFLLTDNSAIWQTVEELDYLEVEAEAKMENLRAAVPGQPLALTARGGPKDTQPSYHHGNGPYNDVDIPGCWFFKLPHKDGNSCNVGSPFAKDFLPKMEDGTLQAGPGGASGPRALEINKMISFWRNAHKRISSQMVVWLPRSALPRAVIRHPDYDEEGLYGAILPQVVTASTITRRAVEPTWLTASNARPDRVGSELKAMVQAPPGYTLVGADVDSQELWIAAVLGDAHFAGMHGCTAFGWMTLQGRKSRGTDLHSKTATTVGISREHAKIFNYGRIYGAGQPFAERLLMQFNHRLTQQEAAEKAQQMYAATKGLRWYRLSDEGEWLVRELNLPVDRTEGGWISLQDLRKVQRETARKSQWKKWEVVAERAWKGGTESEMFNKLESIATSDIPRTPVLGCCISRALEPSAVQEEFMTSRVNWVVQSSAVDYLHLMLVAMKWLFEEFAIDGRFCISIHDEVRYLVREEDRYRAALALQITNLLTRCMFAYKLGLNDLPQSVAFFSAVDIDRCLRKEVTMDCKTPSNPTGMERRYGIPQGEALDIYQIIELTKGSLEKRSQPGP
# T1 sequence (Q9UHN1 1-485 partner): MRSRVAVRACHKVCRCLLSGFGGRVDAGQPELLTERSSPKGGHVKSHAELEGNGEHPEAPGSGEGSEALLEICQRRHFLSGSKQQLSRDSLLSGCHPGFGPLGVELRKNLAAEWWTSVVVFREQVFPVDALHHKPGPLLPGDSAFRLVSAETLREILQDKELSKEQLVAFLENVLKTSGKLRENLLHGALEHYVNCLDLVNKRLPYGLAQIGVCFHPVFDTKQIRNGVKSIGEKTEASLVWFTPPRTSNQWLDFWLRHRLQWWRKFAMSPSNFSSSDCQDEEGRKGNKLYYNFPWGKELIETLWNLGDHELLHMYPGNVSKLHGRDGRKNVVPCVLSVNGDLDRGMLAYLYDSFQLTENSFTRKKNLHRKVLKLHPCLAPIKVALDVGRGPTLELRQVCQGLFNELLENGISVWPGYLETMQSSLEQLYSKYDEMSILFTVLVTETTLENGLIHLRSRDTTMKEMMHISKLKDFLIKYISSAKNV
# Experiment: DNA polymerization assay, POLγA:G848S mutant
# Assay type: biochemical
# Conditions: stimulation of polymerase activity, primed M13mp18 ssDNA, 37° C. 2 hours; read-out: G848S AC50
row,SMILES,AC50 [µM]
1,"COCCN(C)C(=O)c1cccc(NS(=O)(=O)c2cc(C)c(Cl)cc2C)c1 [Example 58, 3-((4-chloro-2,5-dimethylphenyl)sulfonamido)-N-(2-methoxyethyl)-N-methylbenzamide]",46
2,"Cc1ccc(C)c(S(=O)(=O)Nc2ccc(C(=O)NCC3CC3)cc2)c1 [Example 40, N-(cyclopropylmethyl)-4-((2,5-dimethylphenyl)sulfonamido)benzamide]",> 100
3,"Cc1cc(S(=O)(=O)Nc2cccc(C(=O)N3CCN(CCO)CC3)c2)c(C)cc1Cl [Example 55, 4-chloro-N-(3-(4-(2-hydroxyethyl)piperazine-1-carbonyl)phenyl)-2,5-dimethylbenzenesulfonamide]",> 100
4,"Cc1cc(S(=O)(=O)Nc2cccc(C(=O)N[C@H](C)CO)c2)c(C)cc1Cl [Example 51, (R)-3-((4-chloro-2,5-dimethylphenyl)sulfonamido)-N-(1-hydroxypropan-2-yl)benzamide]",44
5,"Cc1cc(S(=O)(=O)N(C)c2cccc(-c3nccs3)c2)c(C)cc1Cl [Example 22, 4-chloro-N,2,5-trimethyl-N-(3-(thiazol-2-yl)phenyl)benzenesulfonamide]",> 100
6,"Cc1ccc(C)c(S(=O)(=O)Nc2cccc(C(=O)NCc3ccccc3)c2)c1 [Example 28, N-benzyl-3-((2,5-dimethylphenyl)sulfonamido)benzamide]",> 100
7,"Cc1csc(-c2cccc(NS(=O)(=O)c3cc(C)c(Cl)cc3C)c2)n1 [Example 20, 4-chloro-2,5-dimethyl-N-(3-(4-methylthiazol-2-yl)phenyl)benzenesulfonamide]",2
8,"Cc1ccc(C)c(S(=O)(=O)Nc2cccc(C(=O)N3CCN(C)CC3)c2)c1 [Example 31, 2,5-dimethyl-N-(3-(4-methylpiperazine-1-carbonyl)phenyl)benzenesulfonamide]",> 100
9,"Cc1cc(S(=O)(=O)Nc2ccc(F)c(C(=O)N3CCC[C@H]3C)c2)c(C)cc1Cl [Example 49, (R)-4-chloro-N-(4-fluoro-3-(2-methylpyrrolidine-1-carbonyl)phenyl)-2,5-dimethylbenzenesulfonamide]",14
10,"Cc1ccc(C)c(S(=O)(=O)Nc2cccc(C(=O)N3CCCCCC3)c2)c1 [Example 32, N-(3-(azepane-1-carbonyl)phenyl)-2,5-dimethylbenzenesulfonamide]",35
11,"Cc1cc(S(=O)(=O)Nc2cc(C(=O)N3CCC[C@H]3C)ccc2F)c(C)cc1Cl [Example 50, (R)-4-chloro-N-(2-fluoro-5-(2-methylpyrrolidine-1-carbonyl)phenyl)-2,5-dimethylbenzenesulfonamide]",11
12,"Cc1cc(S(=O)(=O)Nc2cccc(C(=O)N3CCNCC3)c2)c(C)cc1Cl [Example 46, 4-chloro-2,5-dimethyl-N-(3-(piperazine-1-carbonyl)phenyl)benzenesulfonamide]",91
13,"Cc1cnc(-c2cccc(NS(=O)(=O)c3cc(C)c(Cl)cc3C)c2)s1 [Example 21, 4-chloro-2,5-dimethyl-N-(3-(5-methylthiazol-2-yl)phenyl)benzenesulfonamide]",2
14,"Cc1cc(S(=O)(=O)Nc2cccc(C(N)=O)c2)c(C)cc1Cl [Example 44, 3-((4-chloro-2,5-dimethylphenyl)sulfonamido)benzamide]",27
15,"Cc1ccc(C)c(S(=O)(=O)Nc2cccc(C(=O)N3CCOCC3)c2)c1 [Example 29, 2,5-dimethyl-N-(3-(morpholine-4-carbonyl)phenyl)benzenesulfonamide]",33
16,"N#CC1CSCCN1C(=O)c1cccc(NS(=O)(=O)c2cccc(C(F)(F)F)c2)c1 (stereo not drawn) [Example 35, N-(3-(3-cyanothiomorpholine-4-carbonyl)phenyl)-3-(trifluoromethyl)benzenesulfonamide]",> 100
17,"Cc1cc(S(=O)(=O)Nc2cccc(C(=O)NCCO)c2)c(C)cc1Cl [Example 53, 3-((4-chloro-2,5-dimethylphenyl)sulfonamido)-N-(2-hydroxyethyl)benzamide]",63
18,"Cc1cc(S(=O)(=O)Nc2cccc(C(=O)N3CCN(C)C[C@H]3C)c2)c(C)cc1Cl [Example 54, (R)-4-chloro-N-(3-(2,4-dimethylpiperazine-1-carbonyl)phenyl)-2,5-dimethylbenzenesulfonamide]",21
19,"Cc1ccc(C)c(S(=O)(=O)Nc2cccc(C(=O)N(C)C)c2)c1 [Example 25, 3-((2,5-dimethylphenyl)sulfonamido)-N,N-dimethylbenzamide]",> 100

# Now from value to compound:
row,AC50 [µM],SMILES
1,0.6,"Cc1cc(S(=O)(=O)Nc2csc(C(=O)N3CCCC3)n2)c(C)cc1Cl [Example 166, 4-chloro-2,5-dimethyl-N-(2-(pyrrolidine-1-carbonyl)thiazol-4-yl)benzenesulfonamide]"
2,49,"Cc1nc2ccc(NS(=O)(=O)c3cc(C)c(Cl)cc3C)cc2o1 [Example 70, 4-chloro-2,5-dimethyl-N-(2-methylbenzo[d]oxazol-6-yl)benzenesulfonamide]"
3,> 100,"Cc1cc(S(=O)(=O)Nc2cc(F)cc(-c3nccs3)c2)c(C)cc1Cl [Example 62, 4-chloro-N-(3-fluoro-5-(thiazol-2-yl)phenyl)-2,5-dimethylbenzenesulfonamide]"
4,14,"Cc1cc(S(=O)(=O)Nc2cccc(C(=O)N3CCC(F)(F)C3)c2)c(C)cc1Cl [Example 160, 4-chloro-N-(3-(3,3-difluoropyrrolidine-1-carbonyl)phenyl)-2,5-dimethylbenzenesulfonamide]"
5,2,Cc1ccc(C)c(S(=O)(=O)Nc2cccc(-c3nccs3)c2)c1 [Example 60]
6,> 100,"Cc1cc(S(=O)(=O)Nc2ccc(F)c(-c3nccs3)c2)c(C)cc1Cl [Example 63, 4-chloro-N-(4-fluoro-3-(thiazol-2-yl)phenyl)-2,5-dimethylbenzenesulfonamide]"
7,> 100,"Cc1cc(S(=O)(=O)Nc2cn(Cc3ccccc3)cn2)c(C)cc1Cl [Example 168, N-(1-benzyl-1H-imidazol-4-yl)-4-chloro-2,5-dimethylbenzenesulfonamide]"
8,> 100,"Cc1cc(S(=O)(=O)Nc2nc(-c3ccccc3)co2)c(C)cc1Cl [Example 157, 4-chloro-2,5-dimethyl-N-(4-phenyloxazol-2-yl)benzenesulfonamide]"
9,37,"CC(=O)N1CCC(c2nc(NS(=O)(=O)c3cc(C)c(Cl)cc3C)cs2)CC1 [Example 163, N-(2-(1-acetylpiperidin-4-yl)thiazol-4-yl)-4-chloro-2,5-dimethylbenzenesulfonamide]"
10,> 100,"Cc1cc(S(=O)(=O)Nc2nc(-c3ccccc3)cn2C)c(C)cc1Cl [Example 159, 4-chloro-2,5-dimethyl-N-(1-methyl-4-phenyl-1H-imidazol-2-yl)benzenesulfonamide]"
11,24,"Cc1cc2cc(NS(=O)(=O)c3cc(C)c(Cl)cc3C)ccc2[nH]1 [Example 184, 4-chloro-2,5-dimethyl-N-(2-methyl-1H-indol-5-yl)benzenesulfonamide]"
12,> 100,"Cc1cc(S(=O)(=O)Nc2cn(-c3ccccc3)cn2)c(C)cc1Cl [Example 169, 4-chloro-2,5-dimethyl-N-(1-phenyl-1H-imidazol-4-yl)benzenesulfonamide]"
13,0.7,"Cc1cc(S(=O)(=O)Nc2csc(-c3ccn(C)n3)n2)c(C)cc1Cl [Example 181, 4-chloro-2,5-dimethyl-N-(2-(1-methyl-1H-pyrazol-3-yl)thiazol-4-yl)benzenesulfonamide]"
14,> 100,"Cc1cc(S(=O)(=O)N[C@H]2CCN(c3ccccc3)C2)c(C)cc1Cl [Example 158, (S)-4-chloro-2,5-dimethyl-N-(1-phenylpyrrolidin-3-yl)benzenesulfonamide]"
